One compound from patent US20240424019A1, “SHP1 MODIFIED DENDRITIC CELLS AND EXTRACELLULAR VESICLES DERIVED THEREFROM AND ASSOCIATED METHODS” (BOARD OF REGENTS, THE UNIVERSITY OF TEXAS SYSTEM, priority 2021, published 2024) can be followed below.

Molecules are shown by their SMILES. pIC50: −log10 of the molar value.

The target of one assay is T1, SHP1 (Mus musculus, UniProt P29351).
T1 construct: We immunoprecipitated SHP1 from the vehicle or VitE-treated DC2.4 cells or BMDCs with a monoclonal SHP1 antibody; endogenous in cells
Description: SHP1 tyrosine phosphatase activity in LPS-activated BMDCs. The settings on record: VitE 50 μg/ml vs vehicle, LPS 100 ng/ml stimulation. Format: cell-based. An excerpt:
FIG. 3A: […] FIG. 3B: t-SNEs by CyTOF and quantification comparing the intensity of […]-SHP1 in TADCs from the vehicle-or VitE-treated EMT6 tumors at day 15 post-implantation. FIG. 3C: Top, SHP1 knockdown in BMDCs was effective. Bottom, CFSE-dilution analysis of OT-1 T cells co-cultured with OVA protein-pulsed BMDCs (ratio 10:1) with knockdown of SHP1 by […]6 versus siCtrl (n=3). Right, quantification of OT-1 T-cell numbers under the indicated condition. FIG. 3D: The binding of VitE to purified SHP1 is analyzed by microscale thermophoresis (MST) binding assay. […] FIG. 3E: Relative tyrosine phosphatase activity of SHP1 immunoprecipitated from LPS (100 ng/ml)-activated DC2.4 cells in the presence of indicated doses of VitE (mean of triplicates). FIG. 3F: SHP1 tyrosine phosphatase activity in LPS (100 ng/ml)-activated BMDCs (n=6) treated with vehicle-or VitE (50 μg/ml). Error bars, s.e.m. ns, no significant. *P<0.05, **P<0.01. ***P<0.001, ****P<0.0001. Bone marrow (BM) was harvested from C57BL/6J, BALB/Cj mice by flushing femurs, tibias, and humeri with DCs culture medium. […] We assessed the phosphatase activity of SHP1 by using the RediPlate 96 EnzChek Tyrosine Phosphatase Assay Kit (ThermoFisher). […] We placed beads into RediPlate wells and incubated them for 30 min at 25° C. before reading them for fluorescence. […]

The target of assay [1] is SHP1 immunoprecipitated from LPS-activated DC2.4 cells (UniProt P29351). Description: SHP1 phosphatase assay (EnzChek tyrosine phosphatase kit), dose-response. Format: biochemical, mouse. The settings on record: SHP1 from LPS (100 ng/ml)-activated DC2.4 cells; read-out: inhibitory tyrosine phosphatase activity IC50. An excerpt:
FIG. 3A: […] FIG. 3B: t-SNEs by CyTOF and quantification comparing the intensity of […]-SHP1 in TADCs from the vehicle-or VitE-treated EMT6 tumors at day 15 post-implantation. FIG. 3C: Top, SHP1 knockdown in BMDCs was effective. Bottom, CFSE-dilution analysis of OT-1 T cells co-cultured with OVA protein-pulsed BMDCs (ratio 10:1) with knockdown of SHP1 by […]6 versus siCtrl (n=3). Right, quantification of OT-1 T-cell numbers under the indicated condition. FIG. 3D: The binding of VitE to purified SHP1 is analyzed by microscale thermophoresis (MST) binding assay. […] FIG. 3E: Relative tyrosine phosphatase activity of SHP1 immunoprecipitated from LPS (100 ng/ml)-activated DC2.4 cells in the presence of indicated doses of VitE (mean of triplicates). FIG. 3F: SHP1 tyrosine phosphatase activity in LPS (100 ng/ml)-activated BMDCs (n=6) treated with vehicle-or VitE (50 μg/ml). Error bars, s.e.m. ns, no significant. *P<0.05, **P<0.01. ***P<0.001, ****P<0.0001. We assessed the phosphatase activity of SHP1 by using the RediPlate 96 EnzChek Tyrosine Phosphatase Assay Kit (ThermoFisher). […] We placed beads into RediPlate wells and incubated them for 30 min at 25° C. before reading them for fluorescence. […] The inhibitor dose-response curves were analyzed using normalized IC50 regression curve fitting with control-based normalization.

The test system of the next assay is B16-FLT3L melanoma. Put plainly: B16-FLT3L melanoma model. Format: in vivo, mouse. The conditions noted are these: VitE plus ICT.

One may read the pIC50 as −log10 of the IC50, conventionally taken in molar units.

T1 sequence (P29351 whole entry): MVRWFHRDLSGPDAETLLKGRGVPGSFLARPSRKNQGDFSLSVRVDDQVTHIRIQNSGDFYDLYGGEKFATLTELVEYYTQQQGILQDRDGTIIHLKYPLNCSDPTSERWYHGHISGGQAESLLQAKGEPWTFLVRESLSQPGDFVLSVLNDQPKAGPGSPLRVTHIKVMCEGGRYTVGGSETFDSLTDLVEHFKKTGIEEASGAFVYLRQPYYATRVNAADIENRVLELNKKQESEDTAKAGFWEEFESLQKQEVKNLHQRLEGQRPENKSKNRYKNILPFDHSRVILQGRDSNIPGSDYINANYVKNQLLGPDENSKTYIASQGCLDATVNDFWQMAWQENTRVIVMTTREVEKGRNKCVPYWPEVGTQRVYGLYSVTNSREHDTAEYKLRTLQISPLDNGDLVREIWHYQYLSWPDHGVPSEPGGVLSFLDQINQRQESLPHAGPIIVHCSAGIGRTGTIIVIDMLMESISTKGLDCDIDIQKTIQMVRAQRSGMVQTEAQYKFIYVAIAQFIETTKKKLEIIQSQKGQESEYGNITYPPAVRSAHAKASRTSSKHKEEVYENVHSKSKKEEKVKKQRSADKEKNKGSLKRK

Turning to `Cc1c(C)c2c(c(C)c1O)CC[C@@](C)(CCC[C@H](C)CCC[C@H](C)CCCC(C)C)O2` [VitE, D-α-Tocopherol], the “SHP1 activity in BMDCs” value on SHP1 is given as “marked reduction of SHP1 function”. Moreover, the negative-log IC50 (pIC50) in assay [1] is 3.70 to 4.30. Further, the ICT response entry in the assay on B16-FLT3L melanoma is given as “effectively enhanced their ICT responses”.
